12 molecules from US20150250911A1, “MALODOR COUNTERACTING COMPOSITIONS” (GIVAUDAN, S.A., priority 2012, published 2015) can be followed below.

Assay [1] can be described thus: Sensory study in jars: malodour score by trained volunteers, HMHA malodour. The arrangement: species or system human. Conditions: 0-5 scale (4 = no change from control); HMHA (50 ul @ 0.01%) and 200 ul ORIVOL @ 0.1%. Here is the method:
(§1) Sensory studies were performed in 120 ml Beetson jar. The test compounds were prepared in DEP (=Diethylphtalate) and pipetted onto a desized woven cotton piece of cloth placed at the bottom of a jar. Where two or more compounds were tested in the same jar, they were applied to separate areas of the cotton cloth. Prior the first assessment and between assessments, the jars were incubated at room temperature for one hour so that the headspace did reach equilibrium.
(§2) Sensory studies were performed following the procedure described in Example 5. For the sensory test, participants were given a reference malodour sample (comprising the same ingredients as the jars with the maldodour) and were told that this scored 4 on a 0-5 scale. They were then asked to assess and score three test jars on a 0-5 scale in the specified sequence, with a 20 second gap between jars. The jars were given to the assessors blind in random permutations, with each volunteer smelling all three permutations in duplicate.
(§3) 0: no malodour present 1: strong reduction in malodour 2 medium reduction in malodour 3: weak malodour reduction 4: no change from control 5: worse than control
(§4) Approx. 20 trained volunteers did participate in each study twice.

Assay [2] in a line: Sensory study in jars: malodour score by trained volunteers, MO malodour. The arrangement: species or system human. Here is the method:
as §1, §2, §3, §4

Assay [3] can be described thus: Sensory study in jars: malodour score by trained volunteers, IVA malodour. The following applies: 0-5 scale (4 = no change from control); IVA (50 ul @ 0.06%) and 200 ul ORIVOL @0.1%. The arrangement: species or system human. Here is the method: as §1, §2, §3, §4
Assay [4] in a line: Sensory study in jars: malodour score by trained volunteers, DMDS malodour. The arrangement: species or system human. The following applies: for Malodour Score (arith. means): 0-5 scale (4 = no change from control). Here is the method:
as §1
For the sensory test, participants were given a reference malodour sample (comprising the same ingredients as the jar with the malodour) and were told that this scored 4 on a 0-5 scale. They were then asked to assess and score three test jars on a 0-5 scale in the specified sequence, with a 20 second gap between jars. The jars were given to the assessors blind in random permutations, with each volunteer smelling all three permutations in duplicate.
as §3, §4

Assay [5] is described as follows: Sensory tests of compounds of formula (I) against 4 malodour compounds. The arrangement: species or system human; key: ++++: no malodour present/strong reduction in malodour; +++: medium reduction in malodour; ++: weak malodour reduction; +: no change from control; ◯: worse than control. The following applies: reference malodour sample scored +. Here is the method:
as §1
The same procedures as described in Example 5 have been followed.
The compounds of formula (I) were assessed by the trained volunteers against 4 malodour compounds, namely isovaleric acid, dimethyl disulfide, 2-methyl-3-mercaptobutan-1-ol, and 3-hydroxy-3-methyl hexanoic acid.
For the sensory test, participants were given the reference malodour sample and were told that this scored+on a scale as indicated below. They were then asked to assess and score the test jars in the specified sequence, with a 20 second gap between jars. The jars were given to the assessors blind in random permutations, with each volunteer smelling all permutations in duplicate.
The following score scale was used:
++++: no malodour present/strong reduction in malodour +++: medium reduction in malodour ++: weak malodour reduction +: no change from control ◯: worse than control

In the case of `CCC(C)(C)C1CCC(O)CC1` (stereo not shown) [ORIVOL, 4-(tert-pentyl)cyclohexanol], the “Malodour Score (arith. means)” value in assay [1] is 2.194; in assay [2] (0-5 scale (4 = no change from control), MO (50 ul @ 0.005%) and 200 ul ORIVOL @ 0.1%), 2.375; in assay [3], 2.733; in assay [4] (DMDS 50 ul @ 0.5% and 200 ul ORIVOL @0.1%) it was 2.862; in assay [4] (DMDS (50 ul @ 0.06%) and 200 ul ORIVOL) it was 0.91; in assay [4] (DMDS (50 ul @ 0.5%) and 200 ul ORIVOL), 1.46. In addition, the “reduction on malodour perceivable by the human nose compared to the malodour taken alone” value in assay [2] (MO, IVA and HMHA, Table 2) is listed as “significant reduction”; in assay [4] (DMDS, Table 1, even at very low concentrations), “significant reduction”.
For `CC(C)C1CCCC(C(C)C(C)CO)C1` (stereo not shown) [Compound 5.2, 3-(3-isopropylcyclohexyl)-2-methylbutan-1-ol], in assay [5], the Sensory score entry is on record as “++++”.
Take `OC1CCCCCCCCCCCC1` [Compound 5.10]: the Sensory score entry in assay [5] is listed as “++++”.
On the same count and under the same terms, as for `CC1(O)CCCCCCCCCCCC1` [Compound 5.11], the entry is “++++”; as for `OC1CCCCCCCCCC1` [Compound 5.9], “+++”; as for `OC1CCC(C2CCCCC2)CC1` (stereo not shown) [Compound 5.7], “+++”.
On the same count and under the same terms, as for `CC(C)CC1CCC(CC(C)CO)CC1` (stereo not shown) [Compound 5.6, 3-(4-isobutylcyclohexyl)-2-methylpropan-1-ol], the entry is “+++”; as for `OC1CCCCCCCCCCCCCC1` [Compound 5.12], “++++”.
Same read-out and setting: to `CC(CO)CC1CCCC(C(C)(C)C)C1` (stereo not shown) [Compound 5.3, 3-(3-tert-butylcyclohexyl)-2-methylpropan-1-ol] belongs “++++”; to `OC1CCCCCCCCCCC1` [Compound 5.5], “+++”; to `CC(CO)CC1CCC(C(C)C)CC1` (stereo not shown) [Compound 5.1], “++++”.
On to `CCC(C)(C)C1CCC(O)CC1` (stereo not shown) [Compound 5.4], for which the Sensory score result in assay [5] is listed as “++++”.
